According to patent US7183260B2, “C-terminal modified oxamyl dipeptides as inhibitors of the ICE/ced-3 family of cysteine proteases” (Idun Pharmaceuticals, Inc., priority 1998, dated 2007):
Where a SMILES comes first, the peptide text is derived from it. The star is where a group is joined. Cbz = O=C(OCc1ccccc1)*; CH2F = FC*

Tests used:
Type in all cases: biochemical
Settings in all cases: continuous assay 60 min, reaction initiated by adding enzyme to substrate-inhibitor mixture
MCH-2 = molecular target: T1, MCH-2 (Homo sapiens, UniProt P55212); test: Dissociation constant Ki and irreversible rate constant k3 for irreversible inhibitors (Mch2)
T1 sequence (P55212 24-179 limits assumed): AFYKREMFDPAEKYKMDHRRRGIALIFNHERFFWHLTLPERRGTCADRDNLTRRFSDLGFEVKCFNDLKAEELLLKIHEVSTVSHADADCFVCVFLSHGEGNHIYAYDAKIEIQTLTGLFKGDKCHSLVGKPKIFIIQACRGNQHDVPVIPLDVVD
T1 sequence (P55212 194-293 limits assumed): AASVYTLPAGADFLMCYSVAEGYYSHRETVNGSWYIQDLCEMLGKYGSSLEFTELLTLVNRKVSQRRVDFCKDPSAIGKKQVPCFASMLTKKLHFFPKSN

CPP32 = molecular target: T2, CPP32 (Homo sapiens, UniProt P42574); test: Dissociation constant Ki and irreversible rate constant k3 for irreversible inhibitors (CPP32)
T2 sequence (P42574 29-175 limits assumed): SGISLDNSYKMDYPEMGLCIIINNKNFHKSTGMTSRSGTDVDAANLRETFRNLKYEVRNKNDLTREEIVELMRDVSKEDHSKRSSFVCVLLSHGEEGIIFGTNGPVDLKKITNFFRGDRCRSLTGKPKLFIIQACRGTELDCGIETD
T2 sequence (P42574 176-277 limits assumed): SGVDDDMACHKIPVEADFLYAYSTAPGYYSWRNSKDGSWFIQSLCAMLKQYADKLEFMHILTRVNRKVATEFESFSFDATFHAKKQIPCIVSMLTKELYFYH

MCH-5 = MCH-5 (Homo sapiens, UniProt Q14790); test: Dissociation constant Ki and irreversible rate constant k3 for irreversible inhibitors (Mch5)
mICE = molecular target: T3, mICE (Mus musculus, UniProt P29452); test: Dissociation constant Ki and irreversible rate constant k3 for irreversible inhibitors (ICE)
T3 sequence (P29452 123-296 limits assumed): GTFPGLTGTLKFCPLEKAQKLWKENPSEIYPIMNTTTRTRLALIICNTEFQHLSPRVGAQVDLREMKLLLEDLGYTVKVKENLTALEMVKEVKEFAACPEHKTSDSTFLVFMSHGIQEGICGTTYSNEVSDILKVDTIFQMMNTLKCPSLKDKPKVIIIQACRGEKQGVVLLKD
T3 sequence (P29452 315-402 limits assumed): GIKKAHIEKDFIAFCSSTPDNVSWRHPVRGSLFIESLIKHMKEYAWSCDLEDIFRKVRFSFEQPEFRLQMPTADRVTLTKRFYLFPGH

Sequence of MCH-5 (Q14790 217-374 limits assumed, species assumed): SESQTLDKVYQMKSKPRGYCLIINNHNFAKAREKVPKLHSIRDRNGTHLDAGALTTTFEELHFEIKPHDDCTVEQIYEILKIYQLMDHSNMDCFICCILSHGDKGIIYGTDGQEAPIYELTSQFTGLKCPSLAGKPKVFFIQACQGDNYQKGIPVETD
Sequence of MCH-5 (Q14790 385-479 limits assumed, species assumed): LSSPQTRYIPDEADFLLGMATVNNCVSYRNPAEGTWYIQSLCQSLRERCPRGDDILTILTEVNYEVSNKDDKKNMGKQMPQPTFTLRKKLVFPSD

Row | Structure (SMILES) | Ki (MCH-2) [nM] | MCH-2 k3/Ki (MCH-2) | CPP32 k3/Ki (CPP32) | Ki (CPP32) [nM] | Ki (MCH-5) [nM] | MCH-5 k3/Ki (MCH-5) | Ki (mICE) [nM] | mICE k3/Ki (mICE)
1 | CC(C)[C@H](NC(=O)C(=O)Nc1cccc2ccccc12)C(=O)NC(CC(=O)O)C(=O)CF (mixture of isomers) [Example 3, (3RS)-3-[N-(N′-(1-NAPHTHYL)OXAMYL)VALINYL]AMINO-5-FLUORO-4-OXOPEINTANOIC ACID] | 17 | 199,000 moles^−1 seconds^−1 | 413,000 moles^−1 seconds^−1 | 32 | 1.3 | 1,160,000 moles^−1 seconds^−1 | 1.8 | 2,170,000 moles^−1 seconds^−1
2 | CC(C)[C@H](NC(=O)C(=O)Nc1cccc2ccccc12)C(=O)N[C@@H](CC(=O)O)C(=O)COP(C)(=O)c1ccccc1 (stereo partly drawn) [Example 10] | 11 | – | – | 19 | 5.4 | – | 6.5 | –
3 | C[C@H](NC(=O)C(=O)Nc1ccccc1I)C(=O)N[C@@H](CC(=O)O)C(=O)COC(=O)c1c(Cl)cccc1Cl [Example 38] | 6 | 360,000 moles^−1 seconds^−1 | 942,000 moles^−1 seconds^−1 | 13 | 6 | 337,000 moles^−1 seconds^−1 | 152 | 90,100 moles^−1 seconds^−1
4 | C[C@H](NC(=O)C(=O)Nc1cc(C(F)(F)F)ccc1N1CCOCC1)C(=O)N[C@@H](CC(=O)O)C(=O)COP(=O)(c1ccccc1)c1ccccc1 [Example 45] | 19 | 98,500 moles^−1 seconds^−1 | 100,000 moles^−1 seconds^−1 | 112 | 8 | 441,000 moles^−1 seconds^−1 | 19 | 369,000 moles^−1 seconds^−1
5 | C[C@H](NC(=O)C(=O)Nc1cccc2c1CCCC2)C(=O)N[C@@H](CC(=O)O)C(=O)COC(=O)c1c(Cl)cccc1Cl [Example 62] | 23 | 126,000 moles^−1 seconds^−1 | 149,000 moles^−1 seconds^−1 | 101 | 90 | 21,200 moles^−1 seconds^−1 | 1020 | 16,900 moles^−1 seconds^−1
6 | CC(NC(=O)C(NC(=O)OCc1ccccc1)C(C)C)C(=O)NC(CC(=O)O)C(=O)CF (stereo not drawn) [refer., Cbz-ValAlaAsp-CH2F, reference compound] (Cbz-Val-Ala-Asp-CH2F; configuration not given here) | 594 | 2,950 moles^−1 seconds^−1 | 12,200 moles^−1 seconds^−1 | 820 | 18 | 83,300 moles^−1 seconds^−1 | 15 | 214,000 moles^−1 seconds^−1
7 | CC(C)[C@H](NC(=O)C(=O)Nc1ccncc1)C(=O)N[C@@H](CC(=O)O)C(=O)COc1c(F)c(F)cc(F)c1F [Example 101] | 641 | 5,580 moles^−1 seconds^−1 | 511 mol⁻¹ s⁻¹ | 26100 | 1550 | 1,140 moles^−1 seconds^−1 | 22600 | 912 mol⁻¹ s⁻¹
8 | CC(C)[C@H](NC(=O)C(=O)Nc1ccccc1I)C(=O)N[C@@H](CC(=O)O)C(=O)COc1c(F)c(F)cc(F)c1F [Example 107] | 20 | 137,000 moles^−1 seconds^−1 | 42,300 moles^−1 seconds^−1 | 510 | 4 | 1,026,000 moles^−1 seconds^−1 | 7 | 1,260,000 moles^−1 seconds^−1
9 | CC(C)[C@H](NC(=O)C(=O)Nc1cccc2ccccc12)C(=O)N[C@@H](CC(=O)O)C(=O)COc1ccc(O)cc1 [Example 15] | 37 | 69,100 moles^−1 seconds^−1 | 286,000 moles^−1 seconds^−1 | 42 | 5.7 | 625,000 moles^−1 seconds^−1 | 6.1 | 1,840,000 moles^−1 seconds^−1
10 | CC(C)[C@H](NC(=O)C(=O)Nc1cccc2ccccc12)C(=O)N[C@@H](CC(=O)O)C(=O)COC(=O)c1c(Cl)cccc1Cl [Example 4] | 9 | – | – | 14 | 4 | – | 6.1 | –
11 | C[C@H](NC(=O)C(=O)Nc1cccc2c1CCCC2)C(=O)N[C@@H](CC(=O)O)C(=O)COP(=O)(c1ccccc1)c1ccccc1 [Example 61] | 19 | 120,000 moles^−1 seconds^−1 | 157,000 moles^−1 seconds^−1 | 69 | 38 | 71,800 moles^−1 seconds^−1 | 23 | 315,000 moles^−1 seconds^−1
12 | C[C@H](NC(=O)C(=O)Nc1cc(C(C)(C)C)ccc1C(C)(C)C)C(=O)N[C@@H](CC(=O)O)C(=O)COc1c(F)c(F)cc(F)c1F [Example 40] | 15 | 192,000 moles^−1 seconds^−1 | 221,000 moles^−1 seconds^−1 | 63 | 10 | 248,000 moles^−1 seconds^−1 | 45 | 195,000 moles^−1 seconds^−1
13 | C[C@H](NC(=O)C(=O)Nc1ccccc1Cl)C(=O)N[C@@H](CC(=O)O)C(=O)COP(=O)(c1ccccc1)c1ccccc1 [Example 57] | 13 | 373,000 moles^−1 seconds^−1 | 564,000 moles^−1 seconds^−1 | 44 | 2.1 | 2,330,000 moles^−1 seconds^−1 | 5.3 | 1,980,000 moles^−1 seconds^−1
14 | CC(C)[C@H](NC(=O)C(=O)Nc1ccc(F)cc1)C(=O)N[C@@H](CC(=O)O)C(=O)COc1c(F)c(F)cc(F)c1F [Example 91] | 59 | 121,000 moles^−1 seconds^−1 | 36,300 moles^−1 seconds^−1 | 758 | 15 | 338,000 moles^−1 seconds^−1 | 16 | 906,000 moles^−1 seconds^−1
15 | CC(C)[C@H](NC(=O)C(=O)Nc1ccccc1Cl)C(=O)N[C@@H](CC(=O)O)C(=O)COc1c(F)c(F)cc(F)c1F [Example 105] | 26 | 161,000 moles^−1 seconds^−1 | 96,300 moles^−1 seconds^−1 | 122 | 52 | 234,000 moles^−1 seconds^−1 | 8.4 | 1,540,000 moles^−1 seconds^−1
16 | CC(C)[C@H](NC(=O)C(=O)Nc1ccccc1)C(=O)N[C@@H](CC(=O)O)C(=O)COc1c(F)c(F)cc(F)c1F [Example 82] | 100 | 25,500 moles^−1 seconds^−1 | 36,000 moles^−1 seconds^−1 | 389 | 5 | 598,000 moles^−1 seconds^−1 | 7 | 1,490,000 moles^−1 seconds^−1
17 | C[C@H](NC(=O)C(=O)Nc1cccc2c1CCCC2)C(=O)N[C@@H](CC(=O)O)C(=O)COC(=O)c1c(Cl)cccc1Cl [Example 49] | 10 | 264,000 moles^−1 seconds^−1 | 260,000 moles^−1 seconds^−1 | 43 | 4 | 1,920,000 moles^−1 seconds^−1 | 1.4 | 17,600,000 moles^−1 seconds^−1
18 | CC(C)[C@H](NC(=O)C(=O)Nc1c(F)cccc1F)C(=O)N[C@@H](CC(=O)O)C(=O)COc1c(F)c(F)cc(F)c1F [Example 108] | 8 | 1,083,000 moles^−1 seconds^−1 | 62,900 moles^−1 seconds^−1 | 102 | 1.9 | 1,830,000 moles^−1 seconds^−1 | 4.8 | 2,680,000 moles^−1 seconds^−1
19 | C[C@H](NC(=O)C(=O)NCc1ccccc1)C(=O)N[C@@H](CC(=O)O)C(=O)COC(=O)c1c(Cl)cccc1Cl [Example 52] | 20 | 244,000 moles^−1 seconds^−1 | 600,000 moles^−1 seconds^−1 | 29 | 62 | 203,000 moles^−1 seconds^−1 | 340 | 59,100 moles^−1 seconds^−1
20 | CC(C)[C@H](NC(=O)C(=O)Nc1cccc2ccccc12)C(=O)N[C@@H](CC(=O)O)C(=O)COP(=O)(c1ccccc1)c1ccccc1 [Example 11] | 11 | – | – | 25 | 1.3 | – | 5 | –
21 | CC(C)[C@H](NC(=O)C(=O)Nc1ccccc1Cc1ccccc1)C(=O)N[C@@H](CC(=O)O)C(=O)COc1c(F)c(F)cc(F)c1F [Example 84] | 82 | 25,300 moles^−1 seconds^−1 | 54,800 moles^−1 seconds^−1 | 367 | 24 | 105,000 moles^−1 seconds^−1 | 43 | 344,000 moles^−1 seconds^−1
